Converted amounts (≈) assume the structure as drawn. “Also recorded” adds a separate entry of the source.
Legend:
[1] = physchem; conditions: 25 °C, thermodynamic from solid
Experimental: Compounds are first dispersed in freshly prepared FaSSIF (http://biorelevant.com/site_media/upload/documents/How_to_make_FaSSIF_FeSSIF_and_FaSSGF.pdf) buffer in 1 mg/mL respectively, and the standard samples are prepared by preparing 1 mg/mL of test compounds in DMSO. The compounds are then sufficient mixed by vortex mixer for 30 sec, and agitated at 25° C. using 300 rpm form 4 hour in thermo mixer. After incubation, the prepared samples are centrifuged at 10000 rpm for 10 min to remove the undissolved solid, the resulting supernatants are applied to HPLC. The actual concentrations of the compounds are evaluated by measuring the peak area, and the solubility (S) of compounds is calculated according to following equation:
S=Csmp=Cstd*(Asmp/Astd)*(Vstd/Vsmp)
Where C is the sample concentration in μg/mL, A is the peak area, and V is the injection volume.

[2] = tested on: Symmetric Di-Methyl Arginine (sDMA) marks in Granta-519 cell line; assay: Cellular sDMA western blot in Granta cells; type: cell-based; conditions: Homo sapiens, 72 h, 3 days
[3] = Rat non-crossover PK study; type: in vivo, rat (SD, male, non-fasted); conditions: 1 mg/kg p.o.
Experimental: In a rat (SD, male, non-fasted) non-crossover PK study, the compound of Formula I was dosed at 1 mg/kg (DMA: 20% HPBCD=5:95, solution) via i.v. administration (N=3) and 1 mg/kg (0.5% Na CMC+0.5% Tween80, solution) via oral gauge (p.o.) (N=3).

[4] = tested on: Granta-519 mouse xenograft; assay: Tumor growth inhibition in Granta-519 mouse xenograft model; type: in vivo
Experimental: (§1) Granta-519 cells was maintained in DMEM medium supplemented with 10% fetal bovine serum and 2 mM L-Glutamine at 37° C. in an atmosphere of 5% CO2 in air. Cells in exponential growth phase were harvested and 1×10^7 cells in 0.1 mL of PBS with Matrigel (1:1) were injected subcutaneously at the right lower flank region of each mouse for tumor development. The treatments were started when the mean tumor size reaches approximately 300-400 mm^3. […] Formula I or vehicle (0.5% Na CMC+0.5% Tween80, suspension) were administered orally (QD for Formula I, QD for vehicle) at a dose of 30 mg/kg and 50 mg/kg for 19 and 16 days, respectively. Body weights and tumor size were measured every 3 to 4 days after randomization. Animals were euthanized 12 hours after last dosing, and blood and tumor samples were collected for analysis.

[5] = tested on: Granta-519 cells; assay: Cell proliferation assay on Granta-519 cells (CCK-8); type: cell-based; conditions: Homo sapiens, 240 h; Granta-519 cell line, day 10; read-out: Prolif. IC50
Experimental: Granta-519 cells are maintained in PRMI 1640 (Corning Cellgro, Catalog #: 10-040-CV) medium supplemented with 10% v/v FBS (GE Healthcare, Catalog #: SH30910.03). Formula I is dissolved in DMSO to make 10 mM stocks and stored at −20° C. Nine-point, 3-fold serial dilutions are made with DMSO with top concentration at 1 mM (working stocks).
On day of experiment, compound working stocks are further diluted at 1:50 with fresh medium in 96 well plate, and 10 μL of diluted drugs are added to a new 96 well plate for proliferation assay. Cells growing at exponential phase are spun down at 1500 rpm for 4 min and resuspend in fresh medium to reach a density of 0.5×10^6 cells/ml. 200 ul of cells are added to 96 well plate containing diluted drugs and incubated for 3 days. DMSO is used a vehicle control.
One day 3, 10 μL of Cell Counting Kit-8 (CCK-8, Jojindo, CK04-13) solution is added to a new 96 well plate. […] Plates are incubated in CO2 incubator for 2 hours and OD450 values are measured with a microplate reader (iMark microplate reader, Bio-Rad). […]
Percentage of viable cells, relative to DMSO vehicle control, is calculated and plotted in Graphpad Prism ([Inhibitor] vs. normalized response−Variable slope) to determine proliferation IC50 values on day 10.

[6] = tested on: sDMA in Granta-519 tumor samples; assay: sDMA levels in tumor samples of Granta-519 mouse xenograft (western blot); type: in vivo
Experimental: as §1
To measure sDMA levels in tumor samples, tumors from each mouse were weighted and homogenized in RIPA buffer supplemented with protease inhibitor (cOmplete™, EDTA-free Protease Inhibitor Cocktail, Roche). Lysate were centrifuged at 14,000 rpm for 30 min at 4° C. to remove debris. Total protein concentrations of lysate were determined by BCA assay (ThermoFisher Scientific, Catalog #: 23225). Equal amount of total proteins from each tumor were separated on SDS-PAGE gel, and sDMA levels were determined by WB as described previously.

[7] = Dynamic vapor sorption (DVS); type: physicochemical
Experimental: The dynamic vapor sorption experiments can be done with a VTI SGA-Cx100 Symmetric Vapor Sorption Analyzer. The moisture uptake profile is completed in three cycles of 10% RH increments with adsorption from 5% to 95% RH, followed by desorption of 10% increments from 95% to 5%. The equilibration criteria are 0.0050 wt % in 5 minutes with a maximum equilibration time of 180 minutes. All adsorption and desorption are performed at room temperature (21-22° C.). No pre-drying step is applied for the samples.

[8] = Gravimetric solubility estimate in water; type: physicochemical; conditions: thermodynamic from solid
[9] = room temperature, normal humidity range (40-50% RH)

Row | SMILES | change of form, XRPD before and after DVS [7] | water adsorbed (adsorption/desorption isotherms) ([7]; at about 95% humidity) | water adsorbed (adsorption/desorption isotherms) [7, 9] | solubility [8] | other results
1 | O=C1C(O)=C([C@H]2CC[C@H](c3ccc(Cl)cc3)CC2)C(=O)c2ccccc21 [Atovaquone] |  |  |  |  | solubility at 4 h ([1]; fassif): < 2 µg/mL
2 | C[C@@]1(O)[C@@H]([C@H](O)c2ccc(Cl)c(Cl)c2)O[C@@H](n2ccc3c(N)ncnc32)[C@@H]1O [Formula I, (2R,3S,4R,5R)-5-(4-amino-7H-pyrrolo[2,3-d]pyrimidin-7-yl)-2-((R)-(3,4-dichlorophenyl)(hydroxy)methyl)-3-methyltetrahydrofuran-3,4-diol] |  |  |  |  | IC50 [2]: 31 nM; average dose normalized AUC [3]: 3246 ng·kg·h/mL/mg; bioavailability ([3]; male, SD, blood, po): > 100%; body weight loss ([4]; 30 mg/kg orally QD, 19 days): 1%; tumor growth inhibition ([4]; 30 mg/kg orally QD, 19 days): 46%; body weight loss ([4]; 50 mg/kg orally QD, 16 days): 8%; tumor growth inhibition ([4]; 50 mg/kg orally QD, 16 days): 79%; IC50 [5]: 75 nM; inhibition of sDMA in tumor ([6]; 30 mg/kg orally QD): > 90%; sDMA in tumor ([6]; 50 mg/kg orally QD): no detectable sDMA
3 | C[C@@]1(O)[C@@H]([C@H](O)c2ccc(Cl)c(Cl)c2)O[C@@H](n2ccc3c(N)ncnc32)[C@@H]1O [Formula I, Form I, (2R,3S,4R,5R)-5-(4-amino-7H-pyrrolo[2,3-d]pyrimidin-7-yl)-2-((R)-(3,4-dichlorophenyl)(hydroxy)methyl)-3-methyltetrahydrofuran-3,4-diol] | did not change the polymorphic form; also recorded: no change in form | ~0.5% | ~0.8% |  | 
4 | C[C@@]1(O)[C@@H]([C@H](O)c2ccc(Cl)c(Cl)c2)O[C@@H](n2ccc3c(N)ncnc32)[C@@H]1O.O=C(O)/C=C\C(=O)O [Formula IA, (2R,3S,4R,5R)-5-(4-amino-7H-pyrrolo[2,3-d]pyrimidin-7-yl)-2-((R)-(3,4-dichlorophenyl)(hydroxy)methyl)-3-methyltetrahydrofuran-3,4-diol, maleate salt] |  |  |  | ~1100 µg/mL | 
5 | C[C@@]1(O)[C@@H]([C@H](O)c2ccc(Cl)c(Cl)c2)O[C@@H](n2ccc3c(N)ncnc32)[C@@H]1O.Cl [Formula IB, (2R,3S,4R,5R)-5-(4-amino-7H-pyrrolo[2,3-d]pyrimidin-7-yl)-2-((R)-(3,4-dichlorophenyl)(hydroxy)methyl)-3-methyltetrahydrofuran-3,4-diol, hydrochloride salt] |  |  |  | ~800 µg/mL | 
6 | C[C@@]1(O)[C@@H]([C@H](O)c2ccc(Cl)c(Cl)c2)O[C@@H](n2ccc3c(N)ncnc32)[C@@H]1O.Cl [Formula IB, Form III] | no change in form | ~2.8% | ~1% |  | 
7 | C[C@@]1(O)[C@@H]([C@H](O)c2ccc(Cl)c(Cl)c2)O[C@@H](n2ccc3c(N)ncnc32)[C@@H]1O.Cl [Formula IB, Form II] | no change in Form | ~6% | ~3% |  | 
8 | C[C@@]1(O)[C@@H]([C@H](O)c2ccc(Cl)c(Cl)c2)O[C@@H](n2ccc3c(N)ncnc32)[C@@H]1O.Cl [Formula IB, Form I] | no change in Form | ~0.5% | ~0.1% |  | 
9 | C[C@@]1(O)[C@@H]([C@H](O)c2ccc(Cl)c(Cl)c2)O[C@@H](n2ccc3c(N)ncnc32)[C@@H]1O.O=C(O)C(=O)O [Formula IC, (2R,3S,4R,5R)-5-(4-amino-7H-pyrrolo[2,3-d]pyrimidin-7-yl)-2-((R)-(3,4-dichlorophenyl)(hydroxy)methyl)-3-methyltetrahydrofuran-3,4-diol, oxalate salt] |  |  |  | < 300 µg/mL | 
10 | C[C@@]1(O)[C@@H]([C@H](O)c2ccc(Cl)c(Cl)c2)O[C@@H](n2ccc3c(N)ncnc32)[C@@H]1O.O=P(O)(O)O [Formula ID, (2R,3S,4R,5R)-5-(4-amino-7H-pyrrolo[2,3-d]pyrimidin-7-yl)-2-((R)-(3,4-dichlorophenyl)(hydroxy)methyl)-3-methyltetrahydrofuran-3,4-diol, phosphate salt] |  |  |  | < 300 µg/mL | 
11 | CC(=O)CC(c1ccccc1)c1c(O)c2ccccc2oc1=O (stereo not shown) [Warfarin] |  |  |  |  | solubility at 4 h [1]: 10 to 25 µg/mL (≈ 32.4 to 81.1 µM)
